Measurements: patent US20230072421A1, “TARGETED RADIOPHARMACEUTICALS FOR THE DIAGNOSIS AND TREATMENT OF PROSTATE CANCER” (Bayer AS, priority 2019, published 2023)

Tests used:
[1] = tested on: LNCaP human prostate cancer cells; test: LNCaP xenograft efficacy study (T/C tumor area); type: in vivo, SCID mice; conditions: Example II; 750 kBq/kg weekly for 5 weeks; day 120
Method in brief: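 SCID mice with testosterone pellet bearing s.c. flank LNCaP xenografts (5×10^6 cells in Matrigel) were treated i.v. with a defined radioactive dose once tumors reached 35-50 mm^2 (n=10/group). Tumor area (caliper, longest diameter × perpendicular) measured 2-3× weekly; T/C ratio calculated from tumor areas when vehicle group closed.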

[2] = tested on: LNCaP cells; test: Cell proliferation assay (CellTiter-Glo, 5-day exposure), LNCaP; type: cell-based, human; conditions: compared to 1-PEG-227Th and 46-E 227Th
Description: Inhibition of cell proliferation of Thorium-227 labeled PMSA SMOL ligands was tested different prostate cancer cell lines, namely 22Rv1, VCaP, C4-2 (all from ATCC, Manassas, Va., USA) and LNCaP (DMSZ, Braunschweig). Cells were seeded using the following conditions in 384 well plates (Corning) in 30 μl of growth media at 4000 cells/well for VCaP cells and 1000 cells/well for 22Rv1, C4-2 and LNCaP cells.
Cells were cultivated an incubator at 37° C. and 5% C02 over night. On the following days cells were treated in triplicates with serial dilutions of PSMA-SMOLs labeled with Th-227 at a specific activity of 375 kBq/nmol (RCP>70% as assessed by iTLC analysis; compounds where RCP was between 50-70% in individual experiments are marked with an * in the table) using a D300e Digital Dispenser (Tecan). In sister plates cell viability at treatment start (d=0) was determined using CellTiter-Glo® assay (CTG, Promega, Madison, Wis., USA), by adding 30 μl per well CTG solution, incubation for 10 min and reading of Luminescence in a PheraStarFSX instrument (BMG Labtech). After a 5-day exposure in the presenced of test compounds, cell viability of treated or untreated control cells was determined again using CellTiter-Glo® assay (Promega, Madison, Wis., USA). […] The DRC software is a Biobook Spreadsheet that was developed by Bayer AG and Bayer Business Services on the IDBS E-Workbook Suite platform (IDBS: ID Business Solutions Ltd., Guildford, UK).

[3] = target: T1, PSMA-expressing LNCaP cells (Homo sapiens, UniProt Q04609); test: Internalization assay (membrane bound and internalized Th-227); type: cell-based
T1 construct: PSMA-expressing LNCaP cells; endogenous in cells; host or cells: LNCaP
Description: For internalization assays 24 well plates (#3526, Corning) were coated with 200 μl Poly-L-Lysine (0.1 mg/ml, #3438-100-01, Fa. Cultrex) per well for 2 h at 37° C. […] Cells were incubated at 37° C. and 5% CO2 over night. On the following day 400 μl of the media were removed and a total of 200 μl growth medium added supplemented with PSMA-SMOLs labeled with Th-227 at 375 kBq/nmol in triplicates. Radiochemical purity of the labeling was analyzed by instant thin layer chromatography and found to be above 70% for all compounds used. The final concentration of radiolabeled SMOLs was in the test wells was 10 nM. Cells were incubated for 30 min or 2 h. After the incubation time supernatants were taken off and cells washed with PBS. Thereafter cells were washed twice with 0.2 ml 50 mM Glycine-HCl buffer (#55097, Sigma Aldrich) and once with PBS and the washing solutions combined in counting vials (#TK75-018, Fa. Corning) and subjected to gamma counting (1470 Wizard automatic gamma counter, Wallac). The resulting counts were attributed to membrane bound radioactivity. Cells were then lysed with 500 μl 0.3N NaOH (#181691.1211, Fa. PanReac AppliChem ITW Reagents) followed by another wash with 500 μl PBS. The NaOH lysate as well as the final wash were combined in vials and subjected to gamma counting as described above. Measured radioactivity was attributed to internalized fraction. Results were calculated as fmol of Th-227 per/10^cells in the membrane bound and internalized fractions from triplicate values.

[4] = Biodistribution study in LNCaP tumor-bearing mice (Th227 counted in organs); type: in vivo, SCID mice; conditions: 500 kBq/kg; for Th-227 in Blood / Th-227 in Femur bone / Th-227 in Kidneys / Th-227 in Liver / Th-227 in Spleen / Th-227 in Tumor / Th-227 in salivary glands: study b3004
Method in brief: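 SCID mice bearing testosterone pellets and subcutaneous LNCaP flank tumors (~50 mm^2) received a single intravenous dose of the radioactive compound. At set time points, n=3 animals were sacrificed, and organs were removed, weighed and counted for Th227 on a Germanium detector.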

[5] = 10 nM radiolabeled compound, Th-227 at 375 kBq/nmol, 30 min incubation, triplicates
[6] = 10 nM radiolabeled compound, Th-227 at 375 kBq/nmol, 2 h incubation, triplicates
[7] = comparison of % injected dose per gram tissue

T1 sequence (Q04609 whole entry): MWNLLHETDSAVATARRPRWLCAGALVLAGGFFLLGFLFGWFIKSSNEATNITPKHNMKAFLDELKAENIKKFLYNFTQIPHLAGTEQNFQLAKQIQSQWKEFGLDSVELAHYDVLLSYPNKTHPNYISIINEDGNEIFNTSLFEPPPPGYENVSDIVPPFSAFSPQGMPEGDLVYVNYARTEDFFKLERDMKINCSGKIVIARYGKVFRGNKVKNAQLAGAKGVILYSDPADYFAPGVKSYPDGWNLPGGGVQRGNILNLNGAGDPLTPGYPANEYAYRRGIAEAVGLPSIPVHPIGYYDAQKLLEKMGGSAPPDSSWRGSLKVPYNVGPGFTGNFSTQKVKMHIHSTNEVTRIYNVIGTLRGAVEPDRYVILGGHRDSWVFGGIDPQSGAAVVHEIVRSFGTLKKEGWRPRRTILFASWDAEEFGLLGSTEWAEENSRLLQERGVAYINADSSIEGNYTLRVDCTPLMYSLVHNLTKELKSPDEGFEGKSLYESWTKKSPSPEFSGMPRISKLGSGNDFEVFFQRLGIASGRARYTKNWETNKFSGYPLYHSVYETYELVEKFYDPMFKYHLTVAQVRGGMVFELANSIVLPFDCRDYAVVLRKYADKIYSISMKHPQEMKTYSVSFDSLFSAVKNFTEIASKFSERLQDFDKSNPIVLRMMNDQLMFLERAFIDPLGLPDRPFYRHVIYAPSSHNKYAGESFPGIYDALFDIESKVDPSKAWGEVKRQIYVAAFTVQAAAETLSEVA

CC1=CC2=C3[O][227Th-5]45678([O]C9=C(C=C(C)N(CC(=O)O)C9=[O+]4)C(=O)NCCN(CCCN(CCNC(=O)C4=C([O]5)C(=[O+]6)N(CC(=O)O)C(C)=C4)CCNC(=O)C4=C([OH+]7)C(=[O+]8)N(CC(=O)NC[C@H]5CC[C@H](C(=O)N[C@@H](Cc6ccc7ccccc7c6)C(=O)NCCCC[C@H](NC(=O)N[C@@H](CCC(=O)O)C(=O)O)C(=O)O)CC5)C(C)=C4)CCNC2=O)[O+]=C3N1CC(=O)O [1-C monomer-227Th]
Tumor response [1]: full response
antiproliferative activity on LnCap cells (in words) [2]: superior antiproliferative activity
Internalized in LNCaP fmol/10^6 cells 30 min [3, 5]: 84 fmol/10^6 cells
Membrane bound in LNCaP fmol/10^6 cells 30 min [3, 5]: 105 fmol/10^6 cells
Internalized in LNCaP fmol/10^6 cells 2 h [3, 6]: 291 fmol/10^6 cells
Membrane bound in LNCaP fmol/10^6 cells 2 h [3, 6]: 260 fmol/10^6 cells
intracellular radioactivity on PSMA-expressing LNCaP cells (in words) ([3]; after 30 min and 2 h, compared to 1-B-227Th bearing a DOTA chelator): increased intracellular radioactivity
Accumulation in the tumor (in words) [4, 7]: much higher accumulation in the tumor
Background in blood, liver and spleen (in words) [4, 7]: lower background compared to 1-F-227Th
Th-227 in Blood ([4]; 1 h): 0.63 % ID Th-227/g organ
Th-227 in Femur bone ([4]; 1 h): 0.96 % ID Th-227/g organ
Th-227 in Kidneys ([4]; 1 h): 119.59 % ID Th-227/g organ
Th-227 in Liver ([4]; 1 h): 0.69 % ID Th-227/g organ
Th-227 in Spleen ([4]; 1 h): 4.69 % ID Th-227/g organ
Th-227 in Tumor ([4]; 1 h): 31.73 % ID Th-227/g organ
Th-227 in salivary glands ([4]; 1 h): 9.62 % ID Th-227/g organ
Th-227 in Blood ([4]; 24 h): 0.03 % ID Th-227/g organ
Th-227 in Femur bone ([4]; 24 h): 1.08 % ID Th-227/g organ
Th-227 in Kidneys ([4]; 24 h): 72.59 % ID Th-227/g organ
Th-227 in Liver ([4]; 24 h): 0.35 % ID Th-227/g organ
Th-227 in Spleen ([4]; 24 h): 1.79 % ID Th-227/g organ
Th-227 in Tumor ([4]; 24 h): 16.36 % ID Th-227/g organ
Th-227 in salivary glands ([4]; 24 h): 1.41 % ID Th-227/g organ
Th-227 in Blood ([4]; 72 h): 0.01 % ID Th-227/g organ
Th-227 in Femur bone ([4]; 72 h): 1.12 % ID Th-227/g organ
Th-227 in Kidneys ([4]; 72 h): 24.80 % ID Th-227/g organ
Th-227 in Liver ([4]; 72 h): 0.36 % ID Th-227/g organ
Th-227 in Spleen ([4]; 72 h): 0.76 % ID Th-227/g organ
Th-227 in Tumor ([4]; 72 h): 9.02 % ID Th-227/g organ
Th-227 in salivary glands ([4]; 72 h): 1.13 % ID Th-227/g organ
Th-227 in Blood ([4]; 168 h): 0.00 % ID Th-227/g organ
Th-227 in Femur bone ([4]; 168 h): 1.28 % ID Th-227/g organ
Th-227 in Kidneys ([4]; 168 h): 12.66. % ID Th-227/g organ
Th-227 in Liver ([4]; 168 h): 0.33 % ID Th-227/g organ
Th-227 in Spleen ([4]; 168 h): 0.78 % ID Th-227/g organ
Th-227 in Tumor ([4]; 168 h): 6.20 % ID Th-227/g organ
Th-227 in salivary glands ([4]; 168 h): 1.23 % ID Th-227/g organ
Th-227 in Blood ([4]; 336 h): 0.00 % ID Th-227/g organ
Th-227 in Femur bone ([4]; 336 h): 1.13 % ID Th-227/g organ
Th-227 in Kidneys ([4]; 336 h): 3.41 % ID Th-227/g organ
Th-227 in Liver ([4]; 336 h): 0.31 % ID Th-227/g organ
Th-227 in Spleen ([4]; 336 h): 0.70 % ID Th-227/g organ
Th-227 in Tumor ([4]; 336 h): 2.78 % ID Th-227/g organ
Th-227 in salivary glands ([4]; 336 h): 1.29 % ID Th-227/g organ
